Measured values reported in US7432299B2, “Method of treatment for sexual dysfunction” (Pfizer Inc., priority 2002, dated 2008).

Experiments:
[1] = tested on: PCA-induced ejaculation in anaesthetised rats; assay: p-chloroamphetamine (PCA)-induced ejaculation in anaesthetised rat model of premature ejaculation; format: in vivo; details: for animals that failed to ejaculate within 30 minutes: assigned ejaculatory latency of 1800 s
Experimental: In order to study penile erection and ejaculation the method used was based on the methodology taught in Yonezawa et al (2000) Life Sciences 67, 3031-3039. For ease of reference, this methodology is described below:
Male Sprague Dawley rats, weighing 350-450 g, are used. Prior to the experiments the animals are housed in groups (2 rats per cage) under controlled 12 h light-dark cycle (lights on at 07:00), constant temperature (23±1° C.) and humidity (55±5%). They have free access to standard food pellets and water.
Rats are anesthestised with sodium pentobarbitone (50 mg/kg, i.p.) and are placed in the supine position. The penis is extruded from its sheath and gently held by a wooden applicator positioned at the base of the penis. The test compounds are administered orally and p-chloroamphetamine (PCA) (5-10 mg/kg) is administered i.p. immediately before the sheath retraction and the penile responses, including penile erection, redding and expansion of the penile body, glans erection, engorgement and slight flaring of the glans and cup, glans erection with intense flaring of the glans, are recorded in the presence of test compound or vehicle. Latencies from PCA administration to the initial penile response and ejaculation is also measured in seconds in the presence of test compound or vehicle.
Compound (XI) was dosed orally and was tested at 1, 3, 10 or 30 mg/kg po, 60 min prior to PCA administration).

[2] = tested on: rapid ejaculating rats; assay: Copulatory behaviour in rapid ejaculating conscious rats (model of premature ejaculation); format: in vivo, rat
Experimental: For all the sexual behavour tests, the rapid ejaculating male rats were used as an animal model of premature ejaculation (classified as ejaculatory latency <300 s during baseline assessment). Rapid ejaculating rats were placed in an observation arena (50-60 cm diameter), starting 5 hours into the dark cycle and observed under red ilumination. Three to four minutes after placing the male in the arena, a receptive female (ovariectomised, oestradiol benzoate/progesterone injection 48 hour before behavioural study) was introduced into the arena and the following parameters noted: • i) ejaculatory latency (EJL; time taken from addition of receptive female into the arena to ejaculation); • ii) copulatory efficiency (CE; ejaculatory latency/the number of intromissions to ejaculation, i.e. the number of seconds between intromissions); • iii) intromission frequency (IF; the number of intromissions to ejaculation); • iv) mount frequency (MF; the number of mounts to ejaculation); • v) post ejaculatory interval (PEI; the time taken from ejaculation to the commencement of copulatory behaviour). The Compound Used in the Following Examples was as Follows:
Rodent copulatory behaviour is characterised by a series of mounts, with and without vaginal insertion (50-80% of mounts result in intromission [vaginal penetration]) and ejaculation occurs after 6 to 12 intromissions. Each intromission lasts a matter of seconds—it is not possible to quantify intromission length i.e. intravaginal latency. The effect of Compound (XI) was assessed on a number of copulatory parameters (see above). We have focused ejaculatory latency as a clinical biomarker of time taken to achieve ejaculation. The study was performed in rapid ejaculating rats as a model of premature ejaculation (rats characterised by ejaculatory latency <300 s at baseline).
Compound (XI), an alpha-2-delta ligand, increased ejaculatory latency by 58% in rapidly-ejaculating conscious rats (P<0.01); i.e. Compound (XI) (10 mg/kg, 60 min post oral dosing)-treated animals took 219 s to ejaculate compared to 139 s in vehicle treated animals (see Table 2 below).

For `NC[C@]1(CC(=O)O)C[C@H]2CCC[C@H]21` [Compound (XI), (1R,5R,6S)-[6-(Aminomethyl)bicyclo[3.2.0]hept-6-yl]acetic acid], the “animals that failed to ejaculate within 30 minutes” value ([1]; 3 mg/kg po) was 3 out of 7, the “time taken to achieve erection” value ([1]; 10 mg/kg po) was “small delay” and the “animals that failed to ejaculate within 30 minutes” value ([1]; 10 mg/kg po) was 3 out of 7. For the same compound, the “time taken to achieve erection” value ([1]; 30 mg/kg po) was “small delay”, the “p-chloroamphetamine (PCA)-induced ejaculation” value ([1]; anaesthetised rats, 1, 3, 10 or 30 mg/kg po, 60 min prior to PCA administration) was “significantly delayed” and the quality of erection ([1]; anaesthetised rats, 1-30 mg/kg po) was “not influenced”. For the same compound, the “increase of ejaculatory latency” value ([1]; anaesthetised rats, dose-dependent, 1-30 mg/kg po, 60 min prior to PCA) was “up to 250%”, the ejaculatory latency ([1]; anaesthetised rats, doses above 3 mg/kg po, vehicle circa 300 s) was “circa 1000 s” and the “ejaculatory latency” value ([2]; 10 mg/kg po, mean ± sem (n = 6), P < 0.01) was 219 ± 26 s. The “other effects on copulatory behaviour” value ([2]; rapidly-ejaculating conscious rats, 10 mg/kg po) was “no other significant effects”, the “increase of ejaculatory latency” value ([2]; rapidly-ejaculating conscious rats, 10 mg/kg, 60 min post oral dosing, P<0.01) was 58% and the “time to ejaculate (ejaculatory latency)” value ([2]; rapidly-ejaculating conscious rats, 10 mg/kg, 60 min post oral dosing, vehicle 139 s) was 219 s.
